Measurements as given in ChEMBL document CHEMBL3352807, “Design, synthesis and anti-mycobacterial activity of 1,2,3,5-tetrasubstituted pyrrolyl-N-acetic acid derivatives” (Eur J Med Chem, 2014).
In brackets after ≈: the same amount, converted by molar mass.

Key:
[1] = test system: Pseudomonas aeruginosa; assay: Antibacterial activity against Pseudomonas aeruginosa; type: functional
[2] = test system: Mycolicibacterium smegmatis; assay: Antimycobacterial activity against Mycobacterium smegmatis assessed as growth inhibition after 32 hrs by spectrophotometry; type: functional
[3] = Cytotoxicity against HEK293T cells at 50 uM after 72 hrs by MTT assay; type: cell-based, HEK-293T; conditions: human
[4] = test system: Mycobacterium tuberculosis; assay: Antimycobacterial activity against Mycobacterium tuberculosis H37Rv ATCC 27294 after 28 days by agar dilution method; type: functional; conditions: H37Rv ATCC 27294, 672 h
[5] = test system: HEK-293T; assay: Cytotoxicity against HEK293T cells after 72 hrs by MTT assay; type: cell-based; conditions: Homo sapiens
[6] = Selectivity index, ratio of IC50 for HEK293T cells to MIC for Mycobacterium tuberculosis H37Rv ATCC 27294; type: toxicity, cell-based, HEK-293T; conditions: human, read-out: Selectivity Index

| SMILES | MIC [1] | GI50 [2] | inhibition at 72 h, 50 µM [3] | MIC [4] | IC50 [5] | selectivity ratio [6] |
| --- | --- | --- | --- | --- | --- | --- |
| O=C(Cn1c(-c2ccccc2)cc(-c2cccc3ccccc23)c1-c1ccco1)Nc1nc2ccccc2s1 | 286 µM (≈ 150 µg/mL) | 61.4 µM | 68.8% | 2.97 µM (≈ 1.56 µg/mL) | < 50 µM | 16.8 |
| O=C(Cn1c(-c2ccc3ccccc3c2)cc(-c2ccccc2)c1-c1ccco1)Nc1nc2ccccc2s1 | 286 µM (≈ 150 µg/mL) | – | 38.3% | 2.97 µM (≈ 1.56 µg/mL) | < 50 µM | > 16.8 |
| O=C(O)Cn1c(-c2cccc3ccccc23)cc(-c2ccccc2)c1-c1ccco1 | 47.7 µM (≈ 18.8 µg/mL) | – | 79.5% | 31.8 µM (≈ 12.5 µg/mL) | < 50 µM | 1.57 |
| O=C(O)Cn1c(-c2ccccc2)cc(-c2ccccc2)c1-c1ccc(Br)cc1 | 348 µM (≈ 150 µg/mL) | – | – | 32.3 µM (≈ 14 µg/mL) | – | – |
| O=C(Cn1c(-c2ccccc2)cc(-c2ccccc2)c1-c1ccco1)NCc1ccccc1 | 347 µM (≈ 150 µg/mL) | 52.4 µM | 72.4% | 7.23 µM (≈ 3.13 µg/mL) | < 50 µM | 6.91 |
| O=C(Cn1c(-c2ccccc2)cc(-c2ccccc2)c1-c1ccc(Br)cc1)Nc1nc2ccccc2s1 | 266 µM (≈ 150 µg/mL) | 48.3 µM | 86.7% | 11.1 µM (≈ 6.25 µg/mL) | < 50 µM | 4.51 |
| CCc1nnc(NC(=O)Cn2c(-c3ccccc3)cc(-c3ccccc3)c2-c2ccc(Br)cc2)s1 | 277 µM (≈ 150 µg/mL) | 30.6 µM | – | 46.1 µM (≈ 25.1 µg/mL) | – | – |
| NNC(=O)c1ccncc1 [ISONIAZID] | – | 41.6 µM | – | 5.25 µM (≈ 0.72 µg/mL) | – | – |
| CCc1nnc(NC(=O)Cn2c(-c3ccccc3)cc(-c3ccco3)c2-c2ccco2)s1 | 338 µM (≈ 150 µg/mL) | 15.2 µM | 90.2% | 14.1 µM (≈ 6.26 µg/mL) | < 50 µM | 3.55 |
| O=C(Cn1c(-c2ccc3ccccc3c2)cc(-c2ccccc2)c1-c1ccco1)NCc1ccccc1 | 311 µM (≈ 150 µg/mL) | – | – | 51.9 µM (≈ 25 µg/mL) | – | – |
| CCc1nnc(NC(=O)Cn2c(-c3ccccc3)cc(-c3ccccc3)c2-c2ccco2)s1 | 331 µM (≈ 151 µg/mL) | 23.3 µM | 81% | 27.6 µM (≈ 12.5 µg/mL) | < 50 µM | 1.81 |
| CC1(C)S[C@@H]2[C@H](NC(=O)Cc3ccccc3)C(=O)N2[C@H]1C(=O)O [PENICILLIN G] | 37.4 µM (≈ 12.5 µg/mL) | – | – | – | – | – |
| Cc1ccc(-c2c(-c3ccccc3)cc(-c3ccccc3)n2CC(=O)O)cc1 | 409 µM (≈ 150 µg/mL) | – | 78.2% | 58 µM (≈ 21.3 µg/mL) | < 50 µM | 0.86 |
| CCc1nnc(NC(=O)Cn2c(-c3ccccc3)cc(-c3cccc4ccccc34)c2-c2ccco2)s1 | 298 µM (≈ 150 µg/mL) | 66.8 µM | 59.7% | 3.1 µM (≈ 1.56 µg/mL) | < 50 µM | 16.1 |
| O=C(O)Cn1c(-c2ccccc2)cc(-c2ccccc2)c1-c1ccco1 | 54.7 µM (≈ 18.8 µg/mL) | – | 114% | 18.2 µM (≈ 6.26 µg/mL) | < 50 µM | 2.74 |
| CC(C)CC(C(=O)O)n1c(-c2ccccc2)cc(-c2ccccc2)c1-c1ccco1 (stereo not given) | 376 µM (≈ 150 µg/mL) | – | 82.4% | 7.83 µM (≈ 3.13 µg/mL) | < 50 µM | 6.38 |
| O=C(Cn1c(-c2ccccc2)cc(-c2ccccc2)c1-c1ccco1)NCCc1c[nH]c2ccccc12 | 77.3 µM (≈ 37.5 µg/mL) | 26.8 µM | 62.5% | 6.44 µM (≈ 3.13 µg/mL) | < 50 µM | 7.76 |

| SMILES | MIC [1] | GI50 [2] | inhibition at 72 h, 50 µM [3] | MIC [4] | IC50 [5] | selectivity ratio [6] |
| --- | --- | --- | --- | --- | --- | --- |
| O=C(O)Cn1c(-c2ccccc2)cc(-c2ccco2)c1-c1ccco1 | 113 µM (≈ 37.5 µg/mL) | – | – | 75.1 µM (≈ 25 µg/mL) | – | – |
| O=C(Cn1c(-c2ccccc2)cc(-c2ccccc2)c1-c1ccco1)Nc1nc2ccccc2s1 | 316 µM (≈ 150 µg/mL) | 44.6 µM | 89.8% | 13.2 µM (≈ 6.26 µg/mL) | < 50 µM | 3.8 |
| O=C(Cn1c(-c2ccccc2)cc(-c2ccccc2)c1-c1ccco1)Nc1ccccn1 | 358 µM (≈ 150 µg/mL) | 24.8 µM | 69.3% | 29.8 µM (≈ 12.5 µg/mL) | < 50 µM | 1.68 |
| CCc1nnc(NC(=O)Cn2c(-c3ccccc3)cc(-c3ccccc3)c2-c2ccccc2)s1 | 323 µM (≈ 150 µg/mL) | 20.4 µM | 49.3% | 13.5 µM (≈ 6.26 µg/mL) | < 50 µM | 3.71 |
| O=C(O)Cn1c(-c2ccccc2)cc(-c2cccc3ccccc23)c1-c1ccco1 | 13.3 µM (≈ 5.22 µg/mL) | – | 32% | 7.95 µM (≈ 3.13 µg/mL) | < 50 µM | > 6.29 |
| CO[C@H]1/C=C/O[C@@]2(C)Oc3c(C)c(O)c4c(O)c(c(/C=N/N5CCN(C)CC5)c(O)c4c3C2=O)NC(=O)/C(C)=C\C=C\[C@H](C)[C@H](O)[C@@H](C)[C@@H](O)[C@@H](C)[C@H](OC(C)=O)[C@@H]1C [RIFAMPIN] | – | 1.22 µM | – | 0.29 µM (≈ 0.239 µg/mL) | – | – |
| O=C(O)Cn1c(-c2ccccc2)cc(-c2ccccc2)c1-c1ccccc1 | 47.7 µM (≈ 16.9 µg/mL) | – | 97% | 34.1 µM (≈ 12 µg/mL) | < 50 µM | 1.47 |
| O=C(Cn1c(-c2ccccc2)cc(-c2ccccc2)c1-c1ccc(Br)cc1)Nc1ccccn1 | 295 µM (≈ 150 µg/mL) | 45.9 µM | 75% | 6.15 µM (≈ 3.13 µg/mL) | < 50 µM | 8.13 |
| CC[C@@H](CO)NCCN[C@@H](CC)CO [ETHAMBUTOL] | – | – | – | 27.5 µM (≈ 5.62 µg/mL) | – | – |
| O=C(Cn1c(-c2ccccc2)cc(-c2ccccc2)c1-c1ccccc1)Nc1ccccn1 | 175 µM (≈ 75.1 µg/mL) | 26.7 µM | 62.9% | 7.28 µM (≈ 3.13 µg/mL) | < 50 µM | 6.86 |
| O=C(Cn1c(-c2ccccc2)cc(-c2ccco2)c1-c1ccco1)Nc1nc2ccccc2s1 | 354 µM (≈ 165 µg/mL) | 14 µM | 65.1% | 29.5 µM (≈ 13.7 µg/mL) | < 50 µM | 1.7 |
| CC(C)C(C(=O)O)n1c(-c2ccccc2)cc(-c2ccccc2)c1-c1ccco1 (stereo not given) | 97.4 µM (≈ 37.5 µg/mL) | – | – | 130 µM (≈ 50.1 µg/mL) | – | – |
| CN[C@@H]1[C@H](O[C@H]2[C@H](O[C@H]3[C@H](O)[C@@H](O)[C@H](N=C(N)N)[C@@H](O)[C@@H]3N=C(N)N)O[C@@H](C)[C@]2(O)C=O)O[C@@H](CO)[C@H](O)[C@H]1O [STREPTOMYCIN] | 2.68 µM (≈ 1.56 µg/mL) | – | – | – | – | – |
| O=C(O)Cn1c(-c2ccccc2)cc(-c2ccccc2)c1-c1ccc(Cl)cc1 | 388 µM (≈ 150 µg/mL) | – | 37.4% | 64.6 µM (≈ 25.1 µg/mL) | < 50 µM | 1.55 |
| O=C(Cn1c(-c2ccccc2)cc(-c2ccccc2)c1-c1ccccc1)Nc1nc2ccccc2s1 | 309 µM (≈ 150 µg/mL) | 28.9 µM | 55% | 6.44 µM (≈ 3.13 µg/mL) | < 50 µM | 0.76 |
| CCc1nnc(NC(=O)Cn2c(-c3ccc4ccccc4c3)cc(-c3ccccc3)c2-c2ccco2)s1 | 298 µM (≈ 150 µg/mL) | 73.9 µM | 83.6% | 24.8 µM (≈ 12.5 µg/mL) | < 50 µM | 2.02 |
| CC(C)C(C(=O)O)n1c(-c2ccccc2)cc(-c2ccco2)c1-c1ccco1 (stereo not given) | 400 µM (≈ 150 µg/mL) | – | – | 66.7 µM (≈ 25 µg/mL) | – | – |
